The source of these data is EP0185346A2, “Imidazo derivatives, their preparation and medicaments containing these compounds” (Dr. Karl Thomae GmbH, priority 1984, dated 1986).

The structures appear in SMILES notation.

In this assay the test system is despinalisierten Meerschweinchen. Briefly: Positive inotropic effect in despinalised guinea pigs (LV-dp/dtmax, i.v. injection). Type of assay: in vivo. The conditions noted are these: Cavia porcellus, iv; 1 mg/kg i.v.; mean values, each substance tested in 3 despinalised guinea pigs; read-out: Zunahme in LV-dp/dtmax. An excerpt:
Bestimmung der positiv inotropen Wirkung an despinalisierten Meerschweinchen
Die Untersuchungen wurden an despinalisierten Meerschweinchen durchgeführt. Die Tiere wurden mit 50 % 02 + 50 % N2 beatmet. Der arterielle Blutdruck wurde in der rechten Arteria Carotis mit einem Bell and Howell Druckwandler (4-327-1) gemessen. Für die Erfassung der positiv inotropen Wirkung wurde mit einem Kathetertipmanometer (Millar PR-249) der Druck in dem linken Ventrikel (LV) gemessen. Mittels eines Differenzierers wurde LV-dp/dtmax gewonnen. Die zu untersuchenden Substanzen wurden in eine Vena jugularis injiziert. Als Lösungsmittel diente 0,9 % NaCl+Polydiol 200 (1:1).
Jede Substanz wurde an 3 Meerschweinchen überprüft. Die Dosen waren 0,1 - 3 mg/kg i.v.. Die nachfolgende Tabelle enthält die Mittelwerte bei 1 mg/kg i.v..
Regarding `CN(C)S(=O)(=O)c1ccc(-c2cn3ccc(=O)[nH]c3n2)cc1` [Substanz A], the change in vivo at 1 mg/kg stood at 32%.

For `COc1ccc(-c2cn3cc[nH]c(=O)c3n2)cc1` [Substanz B, 2-(4-Methoxy-phenyl)-7H-imidazo[1,2-a]pyrazin-8-on], the change in vivo at 1 mg/kg came out at 45%.

Consider `COc1ccc(-c2cn3c(=O)[nH]c(=O)[nH]c3n2)cc1` [Substanz C, 7-(4-Methoxy-phenyl)-1H,3H-imidazo[1,2-a][1.3.5]triazin-2,4-dion], for which the change in vivo at 1 mg/kg amounted to 86%.

For the compound `COc1cc(OS(C)(=O)=O)ccc1-c1cn2ccc(=O)[nH]c2n1` [Substanz D, 2-(2-Methoxy-4-methylsulfonyloxy-phenyl)-8H-imidazo-[l,2-a]pyrimidin-7-on], the change in vivo at 1 mg/kg came out at 63%.

In the case of `COc1cc(C#N)ccc1-c1cn2ccc(=O)[nH]c2n1` [Substanz E, 2-(2-Methoxy-4-cyano-phenyl)-8H-imidazo[1,2-a]pyrimidin-7-on], the change in vivo at 1 mg/kg worked out at 44%.

In the case of `COc1cc(S(=O)(=O)N(C)C)ccc1-c1cn2ccc(=O)[nH]c2n1` [Substanz F, 2-(2-Methoxy-4-dimethylaminosulfonyl-phenyl)-8H-imidazo-[1,2-a]pyrimidin-7-on], the change in vivo at 1 mg/kg was 47%.

Turning to `CNS(=O)(=O)c1ccc(-c2cn3ccc(=O)[nH]c3n2)c(OC)c1` [Substanz G, 2-(2-Methoxy-4-methylaminosulfonyl-phenyl)-8H-imidazo-[1,2-a]pyrimidin-7-on], the change in vivo at 1 mg/kg was found to be 75%.

Turning to `COc1cc(C(=O)N(C)C)ccc1-c1cn2ccc(=O)[nH]c2n1` [Substanz H, 2-(2-Methoxy-4-dimethylaminocarbonyl-phenyl)-8H-imidazo-[l,2-a]pyrimidin-7-on], the change in vivo at 1 mg/kg turned out to be 33%.

As for `COc1cc(OS(C)(=O)=O)ccc1-c1cn2cc[nH]c(=O)c2n1` [Substanz I, 2-(2-Methoxy-4-methylsulfonyloxy-phenyl)-7H-imidazo-[1,2-a]pyrazin-8-on], the change in vivo at 1 mg/kg stood at 98%.
